Experimental data taken from ChEMBL document CHEMBL1131656, “Diimidazo[1,2-c:4',5'-e]pyrimidines: N6-N1 conformationally restricted adenosines” (Bioorg Med Chem Lett, 1998).

Columns and labels:
[1] = target: Adenosine receptor A2a (Rattus norvegicus, UniProt P30543); assay: Binding affinity against Adenosine A2a receptor from rat striata
[2] = target: Adenosine receptors; A1 & A2a (Rattus norvegicus) (UniProt P25099+P30543); assay: Ratio of Ki for A2A and A1 receptors; format: protein assay
[3] = target: T1, Adenosine receptor A1 (Rattus norvegicus, UniProt P25099); assay: Binding affinity for rat brain Adenosine A1 receptor
T1 sequence (P25099 whole entry): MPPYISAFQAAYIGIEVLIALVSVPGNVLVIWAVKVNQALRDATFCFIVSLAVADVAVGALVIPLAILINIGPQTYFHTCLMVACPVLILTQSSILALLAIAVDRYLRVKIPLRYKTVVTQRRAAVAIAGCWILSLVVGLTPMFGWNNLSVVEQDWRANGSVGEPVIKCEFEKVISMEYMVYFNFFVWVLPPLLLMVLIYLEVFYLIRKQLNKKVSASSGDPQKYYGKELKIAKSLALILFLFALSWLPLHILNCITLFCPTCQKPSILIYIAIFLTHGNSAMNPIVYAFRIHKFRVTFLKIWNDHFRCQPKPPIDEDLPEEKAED

[4] = target: Adenosine receptor A2a (Rattus norvegicus) (UniProt P30543); assay: Binding affinity against Adenosine A2a receptor from rat striata at a concentration of 10e-3 uM
Adenosine receptor A2a (Rattus norvegicus), sequence (P30543 whole entry): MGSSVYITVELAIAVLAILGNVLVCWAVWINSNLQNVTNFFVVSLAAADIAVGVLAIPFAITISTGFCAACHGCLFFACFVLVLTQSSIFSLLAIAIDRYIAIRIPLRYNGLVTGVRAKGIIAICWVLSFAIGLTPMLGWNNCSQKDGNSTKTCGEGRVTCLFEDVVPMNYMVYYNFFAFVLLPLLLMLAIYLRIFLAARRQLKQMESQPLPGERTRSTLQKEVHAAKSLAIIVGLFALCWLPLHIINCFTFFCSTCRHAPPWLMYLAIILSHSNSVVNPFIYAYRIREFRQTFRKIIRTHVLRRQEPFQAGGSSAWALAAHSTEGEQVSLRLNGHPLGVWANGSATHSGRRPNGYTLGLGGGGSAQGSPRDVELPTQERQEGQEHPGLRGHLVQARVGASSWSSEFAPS

Adenosine receptors; A1 & A2a (Rattus norvegicus), sequence (P30543 whole entry, looked up, one chain of several): as the sequence (P30543 whole entry) above
Adenosine receptor A2a, sequence (P30543 whole entry): as above

Compound	Ki [1] [µM]	Ratio [2]	Ki [3] [µM]	inhibition [4] [%]
CCCOC1=Nc2c(cnn2-c2ccccc2)C2=N[C@H](Cc3ccccc3)CN12	> 100	> 100	–	–
OC[C@@H]1OC(n2cnc3c2N=CN2C[C@@H](Cc4ccccc4)N=C32)[C@@H](O)[C@H]1O (some centres undefined)	13.5	6	2.23	–
C[C@@H]1N=C2c3ncn(C4O[C@@H](CO)[C@H](O)[C@@H]4O)c3N=CN2[C@H]1c1ccccc1 (some centres undefined)	–	70	11.2	45
CCCOC1=Nc2c(ncn2-c2ccccc2)C2=N[C@@H](Cc3ccccc3)CN12	–	0.18	–	–
C[C@H]1N=C2c3ncn(C4O[C@@H](CO)[C@H](O)[C@@H]4O)c3N=CN2[C@@H]1c1ccccc1 (some centres undefined)	55.5	4.4	12.6	–
CCCOC1=Nc2c(ncn2-c2ccccc2)C2=N[C@H](Cc3ccccc3)CN12	72	22	–	–
OC[C@@H]1OC(n2cnc3c2N=CN2C[C@H](Cc4ccccc4)N=C32)[C@@H](O)[C@H]1O (some centres undefined)	57.1	19	2.99	–

Further compounds by falling Ki [1], results first:

Ki [1] [µM]	Ratio [2]	Ki [3] [µM]	inhibition [4] [%]	Compound
189	42	4.54	–	OC[C@@H]1OC(n2cnc3c2N=CN2C[C@H](c4ccccc4)N=C32)[C@@H](O)[C@H]1O (some centres undefined)
45	1.4	–	–	CCCOC1=Nc2c(cnn2-c2ccccc2)C2=N[C@@H](C)[C@H](c3ccccc3)N12
17.5	4.6	3.82	–	OC[C@@H]1OC(n2cnc3c2N=CN2C[C@@H](c4ccccc4)N=C32)[C@@H](O)[C@H]1O (some centres undefined)
11	1.5	–	–	CCCOC1=Nc2c(cnn2-c2ccccc2)C2=N[C@H](C)[C@@H](c3ccccc3)N12
3.3	0.35	–	–	CCCOC1=Nc2c(cnn2-c2ccccc2)C2=N[C@@H](Cc3ccccc3)CN12
